# Values quoted from earlier work as cited in patent US20170022147A1, “FUMARATE COMPOUNDS, PHARMACEUTICAL COMPOSITIONS THEREOF, AND METHODS OF USE” (priority 2015, published 2017).
compound,measurement,value
"COC(=O)/C=C/C(=O)OC [DMF, dimethylfumarate]",aqueous solubility,poor
